For data set [1], the target named is T1, Cholesteryl ester transfer protein (Homo sapiens, UniProt P11597).
T1 sequence (P11597 whole entry): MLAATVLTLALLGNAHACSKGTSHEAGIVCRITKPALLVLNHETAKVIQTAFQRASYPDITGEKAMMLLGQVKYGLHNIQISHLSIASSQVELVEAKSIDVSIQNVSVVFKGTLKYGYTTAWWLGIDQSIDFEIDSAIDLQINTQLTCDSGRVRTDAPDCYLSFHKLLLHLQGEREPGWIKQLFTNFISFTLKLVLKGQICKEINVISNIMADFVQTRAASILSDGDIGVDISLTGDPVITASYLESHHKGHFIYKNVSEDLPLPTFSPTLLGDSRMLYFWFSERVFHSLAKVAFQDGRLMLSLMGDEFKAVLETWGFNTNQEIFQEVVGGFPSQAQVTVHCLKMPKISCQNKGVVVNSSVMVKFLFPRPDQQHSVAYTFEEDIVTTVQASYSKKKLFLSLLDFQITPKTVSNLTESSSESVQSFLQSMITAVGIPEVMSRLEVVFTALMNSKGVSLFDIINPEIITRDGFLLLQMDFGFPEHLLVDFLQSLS
In words: Inhibition of CETP in 95% human serum assessed as inhibition of transfer of [3H] cholesteryl oleate or [3H] triolein between LDL and HDL. In kind it is cell-free.

The target in data set [2] is T1, Cholesteryl ester transfer protein. In words: Inhibition of recombinant CETP (unknown origin) assessed as inhibition of transfer of [3H] cholesteryl oleate or [3H] triolein between exogenous LDL and HDL in 2% human serum.
Data set [3] is described as follows: Plasma concentration in cynomolgus-CETP transgenic mouse at 0.3 mg/kg, po measured after 4 hrs. In kind it is ADME, organism-based.
Data set [4] is described as follows: In vivo inhibition of CETP in cynomolgus-CETP transgenic mouse plasma at 0.3 mg/kg, po measured after 4 hrs. In kind it is functional.
Data set [5] in a line: In vivo inhibition of CETP in cynomolgus-CETP transgenic mouse assessed as increase in plasma HDL-C level at 0.3 mg/kg, po measured after 4 hrs. In kind it is functional. Set-up: scale not given: the % may be the effect or the level left.
Data set [6] can be described thus: In vivo inhibition of CETP in cynomolgus-CETP transgenic mouse plasma at 1 mg/kg, po measured after 4 hrs. In kind it is functional.
Data set [7] can be described thus: In vivo inhibition of CETP in cynomolgus-CETP transgenic mouse assessed as increase in plasma HDL-C level at 1 mg/kg, po measured after 4 hrs. In kind it is functional. Set-up: scale not given: the % may be the effect or the level left.
Data set [8] is described as follows: Plasma concentration in cynomolgus-CETP transgenic mouse at 1 mg/kg, po measured after 4 hrs. In kind it is ADME, organism-based.

The term IC50 denotes the concentration at which inhibition is half-maximal. Turning to `COc1cc(F)c(C(C)C)cc1-c1ccc(C(F)(F)F)cc1CN1C(=O)N[C@H](c2cc(C(F)(F)F)cc(C(F)(F)F)c2)[C@@H]1C`, the IC50 is above 10000 nM in data set [1] and 2780 nM in data set [2].
Regarding `COc1ccc(CCC(=O)O)cc1-c1ccc(C(F)(F)F)cc1[C@@H]1CC[C@H]2[C@@H](c3cc(C(F)(F)F)cc(C(F)(F)F)c3)NC(=O)N12`, the IC50 in data set [2] came to 550 nM.
Same read-out and setting: in the case of `COc1ccc(-c2ccc(C(=O)O)cc2C)cc1-c1ccc(C(F)(F)F)cc1[C@@H]1CC[C@H]2[C@@H](c3cc(C(F)(F)F)cc(C(F)(F)F)c3)NC(=O)N12` it was 379 nM; in that of `COc1ccc(-c2ccc(C(=O)O)cc2C)cc1-c1cnc(C(F)(F)F)cc1[C@@H]1CC[C@H]2[C@@H](c3cc(C(F)(F)F)cc(C(F)(F)F)c3)NC(=O)N12`, 544 nM.
The term inhibition in vivo denotes the drop in the measured response relative to a control, in per cent. In the case of `COc1ncc(-c2ccc(C(=O)O)cc2C)cc1-c1ccc(C(F)(F)F)cc1CN1C(=O)N(C)[C@H](c2cc(C(F)(F)F)cc(C(F)(F)F)c2)[C@@H]1C`, the figures for the IC50 in data set [1] and in data set [2] were 129 nM and 28 nM, respectively. This compound came in with a concentration at 4 h in data set [3] of 630 nM. Besides, the inhibition in vivo at 0.3 mg/kg in data set [4] is 77%. In addition, in data set [5], the Activity stood at 51%.
As for `COc1ccc(-c2ccc(C(=O)O)cc2C)cc1-c1ccc(C(F)(F)F)cc1CN1C(=O)N[C@H](c2cc(C(F)(F)F)cc(C(F)(F)F)c2)[C@@H]1C`, 1 mg/kg produced 87% inhibition in vivo in data set [6]. The figures for the IC50 in data set [1] and in data set [2] were 339 nM and 37 nM, respectively. Besides, the Activity in data set [7] is on record as 101%. The concentration at 4 h in data set [8] amounted to 700 nM.
Regarding `COc1ccc(-c2ccc(C(=O)O)cc2C)cc1-c1ccc(C(F)(F)F)nc1CN1C(=O)N[C@H](c2cc(C(F)(F)F)cc(C(F)(F)F)c2)[C@@H]1C`, the inhibition in vivo at 1 mg/kg in data set [6] was 89%. The IC50 in data set [1] worked out at 446 nM; in data set [2], 18 nM. For the same compound, the Activity in data set [7] was determined as 86%. This compound also had a concentration at 4 h in data set [8] of 830 nM.
On to `COc1ccc([C@H]2CC[C@H](C(=O)O)CC2)cc1-c1ccc(C(F)(F)F)cc1[C@@H]1CC[C@H]2[C@@H](c3cc(C(F)(F)F)cc(C(F)(F)F)c3)NS(=O)(=O)N12`, for which the IC50 is 2680 nM in data set [1] and 394 nM in data set [2].
As for `COc1ccc(-c2ccc(C(=O)O)cc2C)cc1-c1ccc(C(F)(F)F)cc1[C@@H]1CC[C@H]2[C@@H](c3cc(C(F)(F)F)cc(C(F)(F)F)c3)N(C)C(=O)N12`, the IC50 in data set [2] worked out at 414 nM.
`COc1ccc([C@H]2CC[C@H](C(=O)O)CC2)cc1-c1ccc(C(F)(F)F)cc1[C@@H]1CC[C@H]2[C@@H](c3cc(C(F)(F)F)cc(C(F)(F)F)c3)NC(=O)N12`: the IC50 came out at 1730 nM in data set [1] and 1110 nM in data set [2].
Consider `COc1ccc(-c2cccnc2C)cc1-c1ccc(C(F)(F)F)cc1[C@@H]1CC[C@H]2[C@@H](c3cc(C(F)(F)F)cc(C(F)(F)F)c3)NC(=O)N12`, for which, in data set [2], the IC50 was found to be 151 nM.
Regarding `COc1ccc(-c2ccc(C(=O)O)nc2C)cc1-c1ccc(C(F)(F)F)cc1[C@@H]1CC[C@H]2[C@@H](c3cc(C(F)(F)F)cc(C(F)(F)F)c3)NC(=O)N12`, the IC50 in data set [2] worked out at 468 nM.
With `COc1ncc(-c2ccc(C(=O)O)cc2C)cc1-c1ccc(C(F)(F)F)nc1CN1C(=O)N[C@H](c2cc(C(F)(F)F)cc(C(F)(F)F)c2)[C@@H]1C`, at 1 mg/kg the inhibition in vivo in data set [6] was 87%. The results for the IC50 in data set [1] and in data set [2] were 364 nM and 17 nM, respectively. Also, the Activity in data set [7] is recorded as 139%. The concentration at 4 h in data set [8] was determined as 1260 nM.
`COc1ncc(-c2c(C)cc(C(=O)NC3(C#N)CC3)cc2C)cc1-c1ccc(C(F)(F)F)cc1[C@@H]1CC[C@H]2[C@@H](c3cc(C(F)(F)F)cc(C(F)(F)F)c3)NC(=O)N12` gave an inhibition in vivo at 1 mg/kg in data set [6] of 67%. For the same compound, the values for the IC50 in data set [1] and in data set [2] were 95 nM and 55 nM, respectively. In addition, in data set [7], the Activity was 30%. Further, the concentration at 4 h in data set [8] was 1000 nM.
As to `COc1ncc(-c2c(C)cc(C(=O)O)cc2C)cc1-c1ccc(C(F)(F)F)cc1[C@@H]1CC[C@H]2[C@@H](c3cc(C(F)(F)F)cc(C(F)(F)F)c3)NC(=O)N12`, the IC50 in data set [2] is 104 nM.
Take `COc1ncc(-c2ccc(C(=O)O)cc2C)cc1-c1ccc(C(F)(F)F)cc1[C@@H]1CC[C@H]2[C@@H](c3cc(C(F)(F)F)cc(C(F)(F)F)c3)NC(=O)N12`: the IC50 in data set [1] came out at 305 nM; in data set [2], 106 nM. Further, the concentration at 4 h in data set [3] came to 550 nM. Also, 0.3 mg/kg produced 32% inhibition in vivo in data set [4]. Also, the Activity in data set [5] came out at 58%.
`COc1ncc(-c2ccc(C(=O)O)cc2C)cc1-c1ccc(C(F)(F)F)cc1CN1C(=O)N[C@H](c2cc(C(F)(F)F)cc(C(F)(F)F)c2)[C@@H]1C`: the IC50 was determined as 397 nM in data set [1] and 38 nM in data set [2].
Regarding `COc1ncc(-c2ccc(C(=O)O)cc2C)cc1-c1ccc(C(F)(F)F)cc1[C@@H]1CC[C@H]2[C@@H](c3cc(C(F)(F)F)cc(C(F)(F)F)c3)N(C)C(=O)N12`, in data set [2], the IC50 was found to be 248 nM.
For the compound `COc1ccc(-c2ccc(C(=O)O)cc2C)cc1-c1ccc(C(F)(F)F)cc1[C@@H]1CC[C@H]2[C@@H](c3cc(C(F)(F)F)cc(C(F)(F)F)c3)NS(=O)(=O)N12`, the IC50 in data set [2] is 135 nM.

The values above are taken from ChEMBL document CHEMBL4680288, “Cholesteryl ester transfer protein (CETP) inhibitors based on cyclic urea, bicyclic urea and bicyclic sulfamide cores” (Bioorg Med Chem Lett, 2021).
